Results as given in patent US6703382B2, “Small molecule inhibitors targeted at Bcl-2” (Georgetown University Medical Center, priority 2000, dated 2004).

Tests used:
HL-60 cells [1] = test: Hoechst Dye apoptosis assay, HL-60; format: cell-based, human; details: 10 μM, 12 hours, HL-60, high Bcl-2 expression
Text: (§1) Bcl-2 protein expression in human breast and other cancer cell line is characterized herein. Cell lines MCF-7, MDA-231 and MDA-361 express high levels of Bcl-2; MDA-468, BT474 and MDA-435 express median levels. […] Human myeloid leukemia cell HL-60 expresses the highest level of Bcl-2 protein among all the cell lines examined. Accordingly, MDA-231 and HL-60 cell lines with high Bcl-2 expression are positive cells and MDA-453 and T47D are negative control cells. The level of Bcl-2 protein expression is detected by Western blotting.
(§2) Using a Hoechst Dye assay, cells are treated at different doses for 12 hours and apoptotic cells are visually identified and counted under the microscope. Induction of apoptosis is evident after the treatment with Formula II at 10 μM in MDA-453 or T 47D cell lines, cells with low Bcl-2 expression.

MDA-231 cells [2] = test: Annexin-V FACS apoptosis assay, MDA-231; format: cell-based, human; details: 24 hours
Experimental: (§3) The Annexin-V FACS assay yields a more quantitative assessment of the ability of Formula II to induce of apoptosis in HL-60 and MDA-231 cells. MDA-231 cells treated with 0 (untreated), 4 and 10 μM of Formula II for 24 hours provide 0, 13% and 20.0% apoptotic cells, respectively, while HL-60 cells treated with 0, 5, 10, and 20 μM of Formula II for 24 hours provide 0, 24%, 31% and 67% of apoptotic cells, respectively (FIG. 3). Therefore, Formula II induces apoptosis in a highly dose-dependent manner in MDA-231 and HL-60 cell lines with Bcl-2 protein overexpression.

MDA-231 cells [3] = test: Trypan-blue exclusion cell survival assay, MDA-231; format: cell-based; details: Homo sapiens, MDA-MB-231; MDA-231, trypan-blue exclusion; read-out: cell killing IC50
Experimental: (§4) FIG. 3. Illustrated the effects of the compound of formula II on cell viability. Cells are plated in 24-well plates, incubated with said compound at appropriate concentrations for 14 hr. Cell viability is determined by trypan blue exclusion with hemocytometer. Percent of viable cells, as compared with untreated cells, is plotted against drug concentration.
(§5) The ability of Formula II to inhibit cell viability is highly specific and correlates well with the Bcl-2 protein expression level in these cancer cells.

HL-60 cells [4] = test: Trypan-blue exclusion cell survival assay, HL-60; format: cell-based; details: Homo sapiens; HL-60, trypan-blue exclusion; read-out: cell killing IC50
Experimental: as §4, §5

[5] = target: Bcl-2 (GST-fused soluble protein) / Flu-Bak-BH3 peptide (Homo sapiens, UniProt P10415); details: competitive FP assay, FIG. 1
MDA-231 cells [6] = test: Hoechst Dye apoptosis assay, MDA-231; format: cell-based, human; details: 10 μM, 12 hours, MDA-231, high Bcl-2 expression
Text: as §1, §2

T 47D cells = test: Hoechst Dye apoptosis assay, T47D; format: cell-based, human; details: 10 μM, 12 hours, low Bcl-2 expression
Text: as §1, §2

MDA-453 cells = test: Hoechst Dye apoptosis assay, MDA-453; format: cell-based, human; details: 10 μM, 12 hours, MDA-453, low Bcl-2 expression
Text: as §1, §2

HL-60 cells [7] = test: Annexin-V FACS apoptosis assay, HL-60; format: cell-based, human; details: 24 hours
Experimental: as §3

Chain of Bcl-2 (GST-fused soluble protein) / Flu-Bak-BH3 peptide (P10415 1-205 limits assumed): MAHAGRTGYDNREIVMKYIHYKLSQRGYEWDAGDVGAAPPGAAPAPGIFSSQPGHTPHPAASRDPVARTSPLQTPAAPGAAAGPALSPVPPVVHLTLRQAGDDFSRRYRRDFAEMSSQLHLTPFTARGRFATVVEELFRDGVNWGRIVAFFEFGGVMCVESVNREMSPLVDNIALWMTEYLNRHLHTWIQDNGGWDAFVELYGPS

COc1ccc2c(c1)CCc1cc(OC)ccc1[N+]([O-])=[N+]2[O-] [Formula II, 2,9-dimethoxy-11,12-dihydrodibenzo[c,g][1,2] diazocine-5,6-dioxide]
induction of apoptosis (HL-60 cells [1]): significant apoptosis | apoptotic cells (MDA-231 cells [2]; MDA-231, 4 μM): 13% | apoptotic cells (MDA-231 cells [2]; MDA-231, 10 μM): 20.0% | IC50 (MDA-231 cells [3]): 15 µM | IC50 (HL-60 cells [4]): 12 µM | inhibition of the binding of the Bak-BH3 peptide to Bcl-2 in vitro [5]: inhibits the binding | induction of apoptosis (MDA-231 cells [6]): significant apoptosis | induction of apoptosis (T 47D cells): evident | induction of apoptosis (MDA-453 cells): evident | apoptotic cells (HL-60 cells [7]; HL-60, 5 μM): 24% | apoptotic cells (HL-60 cells [7]; HL-60, 10 μM): 31% | apoptotic cells (HL-60 cells [7]; HL-60, 20 μM): 67%
